Measurements as given in patent publication US7132505B1, “Polypeptide inhibiting a proton-gated Na+ channel, a nucleic acid coding for such polypeptide and a method of manufacturing an ASIC1a channel blocker” (Centre National de la Recherche Scientifique - CNRS, dated 2006).
No end group written: not given here.

Columns and labels:
ASIC1a channel [1] = biological target: T1, ASIC1a channel (Rattus norvegicus, UniProt P55926); settings: read-out: IC50 for block of ASIC1a channel; cited from earlier work
T1 sequence (P55926 1-526): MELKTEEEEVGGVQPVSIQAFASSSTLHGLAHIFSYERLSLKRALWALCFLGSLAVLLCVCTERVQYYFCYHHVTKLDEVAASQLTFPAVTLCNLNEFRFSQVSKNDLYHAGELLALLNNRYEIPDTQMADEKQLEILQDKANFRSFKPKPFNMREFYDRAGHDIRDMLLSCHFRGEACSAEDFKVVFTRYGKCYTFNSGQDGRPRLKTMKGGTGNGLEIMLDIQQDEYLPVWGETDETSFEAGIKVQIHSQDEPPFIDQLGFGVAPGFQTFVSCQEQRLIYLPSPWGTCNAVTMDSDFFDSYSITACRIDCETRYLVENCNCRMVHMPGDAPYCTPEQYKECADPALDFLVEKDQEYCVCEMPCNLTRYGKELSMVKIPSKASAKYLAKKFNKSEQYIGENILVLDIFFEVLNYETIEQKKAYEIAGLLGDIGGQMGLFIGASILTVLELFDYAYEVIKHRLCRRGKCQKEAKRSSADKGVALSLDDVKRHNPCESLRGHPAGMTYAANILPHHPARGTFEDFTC

[2] = system: ASIC1a, ASIC1b, ASIC2a, and ASIC3; settings: cited from earlier work
ASIC1a channel [3] = biological target: T1, ASIC1a channel; assay: Amiloride block of ASIC1a channel; assay type: cell-based; settings: IC50 10 μM versus 0.9 nM
[4] = biological target: ASIC1a channel (homomultimer)
[5] = biological target: T2, native PcTX1-sensitive H+-gated channel of rat dorsal root ganglion neurons (suggested by the filing to be a … (rat, UniProt P55926)); assay: cell-based or functional assay
T2 sequence: T1 sequence (P55926 1-526)

[6] = biological target: ASIC1a channel (homomultimer); remark: listed apart in the source

Molecule: N=C(N)NC(=O)c1nc(Cl)c(N)nc1N [amiloride]
- IC50 (ASIC1a channel [1]): 10 µM
- block of transient current generated by ASIC1a, ASIC1b, ASIC2a, and ASIC3 [2]: blocks all transient expression of current
- affinity for ASIC1a relative to PcTX1 (fold lower) (ASIC1a channel [3]): 10^4

Molecule: crude Psalmopoeus cambridgei venom (pool or library)
- ASIC1a current in Xenopus oocytes [4]: 90%

B1: Psalmotoxin 1 (PcTX1) (peptide)
peptide: EDCIPKWKGCVNRHGDCCEGLECWKRRRSFEVCVPKTPKT-OH
modifications: disulfide (positions not given here)
- IC50 of inhibition of the H+-gated current in the PcTX1-sensitive population of DRG neurons [5]: 0.0007 µM
- IC50 of block of the ASIC1a current recorded at pH 6 in Xenopus oocytes [6]: 0.9 nM
